In US20100179173A1, “SUBSTITUTED FUSED PYRIMIDINES AS ANTAGONISTS OF GPR105 ACTIVITY” (priority 2007, published 2010):

Molecular target: T1, chimpanzee GPR105 protein (Pan troglodytes, UniProt A0A2J8P2M1)
T1 construct: expressed in transfected cells
T1 sequence (A0A2J8P2M1 1-338): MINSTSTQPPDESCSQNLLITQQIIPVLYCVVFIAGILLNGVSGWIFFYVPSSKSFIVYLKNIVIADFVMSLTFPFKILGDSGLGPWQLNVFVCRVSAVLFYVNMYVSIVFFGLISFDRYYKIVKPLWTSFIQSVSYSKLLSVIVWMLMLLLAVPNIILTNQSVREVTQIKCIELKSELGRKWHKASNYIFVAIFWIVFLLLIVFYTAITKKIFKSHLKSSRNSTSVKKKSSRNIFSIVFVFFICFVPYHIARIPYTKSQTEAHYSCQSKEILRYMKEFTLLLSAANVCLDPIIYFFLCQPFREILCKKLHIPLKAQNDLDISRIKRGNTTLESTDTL
Experiment: Cell-Binding Assay: inhibition of UDP-glucose-induced Ca2+ signaling (FLIPR) in HEK/GPR105/Gqi5 cells
Type: cell-based
Conditions: HEK cells expressing chimpanzee GPR105 and Gqi5, UDP-glucose agonist at EC80
Protocol: A stable HEK clonal cell line expressing the chimpanzee GPR105 protein and the chimeric G protein Gqi5 was developed. The chimeric Gqi5 forces the coupling of GPR105 through the Gq (calcium) pathway and allows for monitoring of calcium signaling using a calcium binding fluorescent dye and the FLIPR (fluorometric imaging plate reader, MDS Sciex). […] Cells were incubated overnight at 37° C. and 5% CO2 to form a monolayer. On the following day, 30 μL of fluorescent no-wash dye was added to the cell monolayer and the plate was incubated for 60 min at 37° C., 5% CO2. […] of compound in 100% DMSO was added to cell/dye incubation using acoustic dispensing (Echo™, Labcyte). Following a 20 minute incubation of compound at room temperature, 6.25 μL of UDP-glucose agonist (at EC80) in Hank's Balanced Salt Solution (HBSS) containing 20 mM Hepes was added to cells and Ca^2+ signaling was monitored by FLIPR. Quantitation of the % inhibition of Ca^2+ signaling by antagonist was calculated using the maximum fluorescent signal detected. IC50's for the compounds of structural formula (I) were calculated as follows: […]

Row | Structure (SMILES) | IC50
1 | CCc1cncc(NC(=O)N2CCc3nc(-c4cccnc4)nc(-c4ccccc4C)c3C2)c1 | 55.7 nM
2 | CCc1cccc(NC(=O)N2CCc3nc(-c4cscc4C)nc(-c4ccccc4C)c3C2)c1 | 65.1 nM
3 | CCc1cccc(NC(=O)N2CCc3nc(-c4ccnn4C)nc(-c4ccccc4C)c3C2)c1 | 34.5 nM
4 | Cc1ccccc1-c1nc(-c2cccnc2)nc2c1CN(C(=O)Nc1cccc(-c3ccc(C(N)=O)cc3)c1)CC2 | 18.4 nM
5 | CCc1cccc(NC(=O)N2CCc3nc(-c4ccnc(F)c4)nc(-c4ccccc4C)c3C2)c1 | 12 nM
6 | CCc1cc(Cl)cc(NC(=O)N2CCc3nc(-c4cncnc4)nc(-c4ccccc4C)c3C2)c1 | 10.5 nM

Now those with a lower IC50, led by results:

Row | IC50 | Structure (SMILES)
7 | 5.6 nM | CCc1cc(NC(=O)N2CCc3nc(-c4cccnc4)nc(-c4ccccc4C)c3C2)cc(-c2cn(C)cn2)c1
8 | 7.8 nM | CCc1cccc(NC(=O)N2CCc3nc(-c4ccc(C#N)nc4)nc(-c4ccccc4C)c3C2)c1
9 | 8.1 nM | CCc1cc(NC(=O)N2CCc3nc(-c4cccnc4)nc(-c4ccccc4C)c3C2)cc(Oc2ccccc2)c1
10 | 4 nM | CCc1cc(NC(=O)N2CCc3nc(-c4cccnc4)nc(-c4ccccc4C)c3C2)cc(-c2ccc(C(=O)O)cc2)c1
